The values that follow come from patent publication US8722849B2, “Polypeptides” (Novo Nordisk A/S, priority 2011, dated 2014).

For data set [1], the target named is T1, human amylin receptor (amylin 3(a) receptor: human calcitonin receptor + RAMP-3) (Homo sapiens, UniProt O60896+P30988).
T1 construct: expressed in transfected cells; host or cells: BHK570
T1 sequence (P30988 25-474): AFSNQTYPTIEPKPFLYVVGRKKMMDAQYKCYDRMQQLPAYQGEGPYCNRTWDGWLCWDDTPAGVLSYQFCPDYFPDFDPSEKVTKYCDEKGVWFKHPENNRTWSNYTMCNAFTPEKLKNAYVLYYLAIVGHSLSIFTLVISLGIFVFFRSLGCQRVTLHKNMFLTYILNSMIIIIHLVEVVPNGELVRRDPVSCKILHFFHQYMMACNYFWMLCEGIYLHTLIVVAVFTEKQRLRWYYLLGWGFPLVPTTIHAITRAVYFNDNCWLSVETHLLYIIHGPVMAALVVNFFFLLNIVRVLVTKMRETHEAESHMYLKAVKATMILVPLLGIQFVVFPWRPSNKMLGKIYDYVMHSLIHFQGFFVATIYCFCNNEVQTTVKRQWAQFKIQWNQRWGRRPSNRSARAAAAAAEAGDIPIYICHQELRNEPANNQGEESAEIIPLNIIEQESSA
T1 sequence (O60896 24-148 partner): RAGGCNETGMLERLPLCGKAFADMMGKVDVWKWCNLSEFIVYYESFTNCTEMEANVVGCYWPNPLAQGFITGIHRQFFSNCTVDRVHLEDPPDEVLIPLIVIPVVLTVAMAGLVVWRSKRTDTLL
Kind of data set: Assay (II)a functional CRE-luciferase assay, human amylin receptor. It counts as cell-based.

The target in data set [2] is T2, human calcitonin receptor (Homo sapiens, UniProt P30988).
T2 construct: expressed in transfected cells; host or cells: BHK570
T2 sequence (P30988 25-474): T1 sequence (P30988 25-474)
Kind of data set: Assay (II)a functional CRE-luciferase assay, human calcitonin receptor. It counts as cell-based.

Data set [3] concerns the target T3, rat amylin 3(a) receptor (rat calcitonin(a) receptor + rat RAMP3) (Rattus norvegicus, UniProt P32214+Q9JJ73).
T3 construct: expressed in transfected cells; host or cells: BHK tk'ts 13
T3 sequence (P32214 25-479 isoform P32214-2 limits assumed): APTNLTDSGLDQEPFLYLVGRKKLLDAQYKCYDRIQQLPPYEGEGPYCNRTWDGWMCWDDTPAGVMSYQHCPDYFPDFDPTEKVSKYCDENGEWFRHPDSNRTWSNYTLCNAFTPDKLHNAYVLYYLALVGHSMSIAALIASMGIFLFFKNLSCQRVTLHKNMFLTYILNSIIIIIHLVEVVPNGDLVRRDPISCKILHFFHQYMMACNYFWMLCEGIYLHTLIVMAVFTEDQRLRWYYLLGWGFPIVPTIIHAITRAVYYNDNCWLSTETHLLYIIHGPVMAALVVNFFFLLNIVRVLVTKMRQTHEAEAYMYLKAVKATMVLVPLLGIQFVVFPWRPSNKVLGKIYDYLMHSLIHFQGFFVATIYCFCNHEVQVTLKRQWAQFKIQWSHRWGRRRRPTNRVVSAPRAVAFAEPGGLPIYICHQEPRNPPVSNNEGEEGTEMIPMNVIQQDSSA
T3 sequence (Q9JJ73 23-147 partner): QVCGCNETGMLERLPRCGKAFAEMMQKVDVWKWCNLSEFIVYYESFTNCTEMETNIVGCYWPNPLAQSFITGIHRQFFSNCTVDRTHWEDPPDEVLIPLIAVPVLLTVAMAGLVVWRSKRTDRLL
As to the kind of experiment: Assay (II)b functional cAMP FlashPlate assay, rat amylin receptor. The settings on record: Table 11. It counts as cell-based. Put shortly: (§1)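 BHK tk'ts 13 cells transiently transfected with rat calcitonin(a) receptor, alone or with rat RAMP3 (amylin 3(a)), were stimulated 24 hours later with sample for 30 min in buffer containing IBMX. cAMP measured by competitive radioactive FlashPlate assay, scintillation read after 3 h detection incubation.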

Data set [4] concerns the target T4, rat calcitonin (a) receptor (Rattus norvegicus, UniProt P32214).
T4 construct: expressed in transfected cells; host or cells: BHK tk'ts 13
T4 sequence (P32214 25-479 isoform P32214-2 limits assumed): T3 sequence (P32214 25-479 isoform P32214-2 limits assumed)
As to the kind of experiment: Assay (II)b functional cAMP FlashPlate assay, rat calcitonin receptor. It counts as cell-based. The following applies: Table 11; read-out: CTa receptor rat EC50. In a few lines: as §1

The nature of data set [5]: Assay (IV) determination of solubility. It counts as physicochemical. In a few lines: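 Solubility is measured across pH 3.0–8.0 by mixing a ~500 nmol/ml aqueous polypeptide stock 1:1 with 100 mM glycylglycine or bistrispropane buffers. Samples stand 18 hours at room temperature, then are centrifuged and the soluble concentration is determined by HPLC.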
Where [6] appears, read: Table 2, BHK amylin 3(a)-receptor/CRE-luc cells.
Setting [7] is: Table 7, human calcitonin (CTa) receptor.

≈ marks a conversion by molar mass, not a printed value. Where two headings read alike, the source gives them in different places. Starred links: 1 amine or outer side, 2 acyl side, 3 side chain; linkers in the order of their positions; H or OH if unused. Positions of bridges follow the written chain, without caps; N, C: chain ends. Non-standard residues stand in square brackets, D forms with d. Residues, ends and D or L forms follow the SMILES beside them. *: point of attachment. C20 diacid = O=C(O)CCCCCCCCCCCCCCCCCCC(=O)*; γGlu = O=C(O)[C@H](CCC(=O)[*:2])N[*:1]; AEEA = NCCOCCOCC(=O)O

What is called EC50 is the concentration needed to bring the measured effect to its halfway point. Broadly, the solubility is the dissolved amount per volume that the medium holds. On to `CC[C@H](C)[C@H](NC(=O)[C@@H]1CCCN1C(=O)CNC(=O)[C@H](Cc1ccccc1)NC(=O)[C@H](CC(N)=O)NC(=O)[C@H](C)NC(=O)[C@H](CO)NC(=O)[C@H](CO)NC(=O)[C@H](CCCNC(=N)N)NC(=O)[C@H](Cc1cnc[nH]1)NC(=O)[C@H](CC(C)C)NC(=O)[C@H](Cc1ccccc1)NC(=O)[C@H](CCC(=O)O)NC(=O)[C@H](C)NC(=O)[C@H](CC(C)C)NC(=O)[C@H](CCCNC(=N)N)NC(=O)[C@H](CCC(N)=O)NC(=O)[C@@H](NC(=O)[C@H](C)NC(=O)[C@@H]1CSSC[C@H](NC(=O)[C@H](CCCCN)NC(=O)[C@@H](CCCNC(=N)N)NC(=O)[C@@H](CCCNC(=N)N)NC(=O)COCCOCCNC(=O)COCCOCCNC(=O)CC[C@H](NC(=O)CCCCCCCCCCCCCCCCCCC(=O)O)C(=O)O)C(=O)N[C@@H](CC(N)=O)C(=O)N[C@@H]([C@@H](C)O)C(=O)N[C@@H](C)C(=O)N[C@@H]([C@@H](C)O)C(=O)N1)[C@@H](C)O)C(=O)N[C@@H](CC(C)C)C(=O)N1CCC[C@H]1C(=O)N1CCC[C@H]1C(=O)N[C@H](C(=O)N[C@@H](CC(N)=O)C(=O)N[C@H](C(=O)NCC(=O)N[C@@H](CO)C(=O)N[C@@H](CO)C(=O)N[C@H](C(=O)N[C@@H](Cc1ccc(O)cc1)C(N)=O)[C@@H](C)O)C(C)C)[C@@H](C)O` [Example 38, N-alpha-[2-(2-{2-[2-(2-{2-[(S)-4-Carboxy-4-(19-carboxyheptadecanoylamino)butyrylamino]ethoxy}ethoxy)acetylamino]ethoxy}ethoxy)acetyl]-D-Arg-D-Arg-[Glu14,His17,Arg18,Ala21,Ser35]-pramlintide] ({C20 diacid-γGlu-AEEA-AEEA}-[dR][dR]KCNTATCATQRLAEFLHRSSANFGPILPPTNVGSSTY-NH2; disulfide 4-9), for which the EC50 stood at 149 pM in data set [1] (setting [6]); 149 pM in data set [1] (Table 3, BHK amylin 3(a)-receptor/CRE-luc cells); 149 pM in data set [1] (Table 4); 149 pM in data set [1] (Table 5); 149 pM in data set [1] (Table 6, human amylin receptor); 149 pM in data set [1] (Table 7, human amylin receptor). Further, the EC50 in data set [1] (Table 8) worked out at 149 pM; in data set [1] (Table 9), 149 pM; in data set [1] (Table 11) it was 149 pM; in data set [2] (setting [7]), 1110 pM; in data set [2] (Table 11, read-out: CTa receptor human EC50), 1110 pM; in data set [3] it was 233 pM. For the same compound, in data set [4], the EC50 came to 4480 pM. Also, the solubility in data set [5] (pH 3, pH 3.0, read-out: Solubility pH 3.0) is above 200 µM; in data set [5] (pH 4, pH 4.0, 18 hours at room temperature, Table 2, read-out: Solubility pH 4.0), above 200 µM; in data set [5] (pH 4, pH 4.0, read-out: Solubility pH 4.0), above 200 µM; in data set [5] (pH 5, pH 5.0, read-out: Solubility pH 5.0) it was above 200 µM; in data set [5] (pH 6, pH 6.0, read-out: Solubility pH 6.0), above 200 µM; in data set [5] (pH 6.5, pH 6.5, read-out: Solubility pH 6.5) it was above 200 µM. The solubility in data set [5] (pH 7, pH 7.0, 18 hours at room temperature, Table 3, read-out: Solubility pH 7.0) is above 200 µM; in data set [5] (pH 7, pH 7.0, Table 8, read-out: Solubility pH 7.0), above 200 µM; in data set [5] (pH 7, pH 7.0, Table 9, read-out: Solubility pH 7.0), above 200 µM; in data set [5] (pH 7, pH 7.0, read-out: Solubility pH 7.0) it was above 200 µM; in data set [5] (pH 7.5, pH 7.5, Table 9, read-out: Solubility pH 7.5) it was above 200 µM; in data set [5] (pH 7.5, pH 7.5, read-out: Solubility pH 7.5), above 200 µM. Besides, the solubility in data set [5] (pH 8, pH 8.0, read-out: Solubility pH 8.0) is above 200 µM.
Turning to `CC[C@H](C)[C@H](NC(=O)[C@@H]1CCCN1C(=O)CNC(=O)[C@H](Cc1ccccc1)NC(=O)[C@H](CC(N)=O)NC(=O)[C@H](CC(N)=O)NC(=O)[C@H](CO)NC(=O)[C@H](CO)NC(=O)[C@H](Cc1cnc[nH]1)NC(=O)[C@H](CCCNC(=N)N)NC(=O)[C@H](CC(C)C)NC(=O)[C@H](Cc1ccccc1)NC(=O)[C@H](CCC(=O)O)NC(=O)[C@H](C)NC(=O)[C@H](CC(C)C)NC(=O)[C@H](CCCNC(=N)N)NC(=O)[C@H](CCC(N)=O)NC(=O)[C@@H](NC(=O)[C@H](C)NC(=O)[C@@H]1CSSC[C@H](NC(=O)[C@H](Cc2cnc[nH]2)NC(=O)[C@H](Cc2cnc[nH]2)NC(=O)[C@H](Cc2cnc[nH]2)NC(=O)CC[C@H](NC(=O)CCCCCCCCCCCCCCCCCCC(=O)O)C(=O)O)C(=O)N[C@@H](CC(N)=O)C(=O)N[C@@H]([C@@H](C)O)C(=O)N[C@@H](C)C(=O)N[C@@H]([C@@H](C)O)C(=O)N1)[C@@H](C)O)C(=O)N[C@@H](CC(C)C)C(=O)N1CCC[C@H]1C(=O)N1CCC[C@H]1C(=O)N[C@H](C(=O)N[C@@H](CC(N)=O)C(=O)N[C@H](C(=O)NCC(=O)N[C@@H](CO)C(=O)N[C@@H](CC(N)=O)C(=O)N[C@H](C(=O)N[C@@H](Cc1ccc(O)cc1)C(N)=O)[C@@H](C)O)C(C)C)[C@@H](C)O` [Example 12, N-alpha-[(S)-4-Carboxy-4-(19-carboxynonadecanoylamino)butyryl]-His-His-[His1,Glu14,Arg17]-pramlintide] ({C20 diacid-γGlu}-HHHCNTATCATQRLAEFLRHSSNNFGPILPPTNVGSNTY-NH2; disulfide 4-9), the EC50 in data set [1] (setting [6]) worked out at 77.5 pM; in data set [2] (setting [7]), 409 pM; in data set [3], 82 pM; in data set [4], 6760 pM. Also, the solubility at 18 h in data set [5] (bistrispropane buffer, pH 6, pH 6.0, read-out: Solubility pH 6.0) was above 200 µM; in data set [5] (bistrispropane buffer, pH 6.5, pH 6.5, read-out: Solubility pH 6.5), 45 µM (≈ 214 µg/mL); in data set [5] (bistrispropane buffer, pH 7.5, pH 7.5, read-out: Solubility pH 7.5), 26 µM (≈ 124 µg/mL); in data set [5] (bistrispropane buffer, pH 8, pH 8.0, read-out: Solubility pH 8.0) it was 69 µM (≈ 328 µg/mL); in data set [5] (glycylglycine buffer, pH 3, pH 3.0, read-out: Solubility pH 3.0) it was above 200 µM; in data set [5] (glycylglycine buffer, pH 4, pH 4.0, 18 hours at room temperature, Table 2, read-out: Solubility pH 4.0), above 200 µM. The solubility at 18 h is above 200 µM in data set [5] (glycylglycine buffer, pH 4, pH 4.0, read-out: Solubility pH 4.0); above 200 µM in data set [5] (glycylglycine buffer, pH 5, pH 5.0, read-out: Solubility pH 5.0); 9 µM (≈ 42.8 µg/mL) in data set [5] (pH 7.0, read-out: Solubility pH 7.0).
